# Data published in PubChem BioAssay AID192 (DTP/NCI, 2004).
# Values joined by “and” are separate entries in the source; they are usually repeats but may differ in a detail not shown here. Equal entries are not always repeated. Inconclusive results and toxic doses are left out.
# Test system: BDF1 mice, B16 melanoma ip, median survival T/C
# Assay: NCI In Vivo Anticancer Drug Screen. Data for tumor model B16 Melanoma (intraperitoneal) in B6D2F1 (BDF1) mice
# Conditions: endpoint: median survival time, higher = longer survival
# Method in brief: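 Values are ratios of treated (T) to vehicle-control (C) measurements of survival or tumor size in tumor-bearing mice.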
# [1] = dose: 25.0 mg/kg/injection, schedule: Q01DX009 (ip), vehicle: saline with Tween-80
# [2] = dose: 50.0 mg/kg/injection, schedule: Q01DX009 (ip), vehicle: saline with Tween-80
# [3] = dose: 100.0 mg/kg/injection, schedule: Q01DX009 (ip), vehicle: saline with Tween-80
# [4] = dose: 12.5 mg/kg/injection, schedule: Q01DX009 (ip), vehicle: saline with Tween-80
# [5] = dose: 200.0 mg/kg/injection, schedule: Q01DX009 (ip), vehicle: saline with Tween-80
# [6] = dose: 3.12 mg/kg/injection, schedule: Q01DX009 (ip), vehicle: saline
# [7] = dose: 25.0 mg/kg/injection, schedule: Q01DX009 (ip), vehicle: saline
# [8] = dose: 50.0 mg/kg/injection, schedule: Q01DX009 (ip), vehicle: saline
# [9] = dose: 100.0 mg/kg/injection, schedule: Q01DX009 (ip), vehicle: Klucel (hydroxypropylcellulose) (HPC)
# [10] = dose: 200.0 mg/kg/injection, schedule: Q01DX009 (ip), vehicle: Klucel (hydroxypropylcellulose) (HPC)
# [11] = dose: 400.0 mg/kg/injection, schedule: Q01DX009 (ip), vehicle: Klucel (hydroxypropylcellulose) (HPC)
# [12] = dose: 100.0 mg/kg/injection, schedule: Q01DX009 (ip), vehicle: saline
# [13] = dose: 200.0 mg/kg/injection, schedule: Q01DX009 (ip), vehicle: saline
structure (smiles),measurement,setting,value
CCOC(=O)c1[nH]c(C#N)c(C(=O)OCC)c1C,T/C,[1],95 % of control
same,T/C,[2],95 % of control
same,T/C,[3],88 % of control
COC(=O)C(Cl)(Cl)N=Nc1c(Cl)cc(Cl)c(C)c1Cl,T/C,[4],112 % of control
same,T/C,[1],106 % of control
same,T/C,[2],111 % of control
same,T/C,[3],99 % of control
same,T/C,[5],97 % of control
CNC(=S)N/N=C/c1ccc([N+](=O)[O-])s1,T/C,[2],90 % of control
same,T/C,[3],92 % of control
same,T/C,[5],92 % of control
COC(=O)C1=CCCN(C)C1,T/C,[6],100 % of control
same,T/C,"dose: 6.25 mg/kg/injection, schedule: Q01DX009 (ip), vehicle: saline",115 % of control
same,T/C,"dose: 12.5 mg/kg/injection, schedule: Q01DX009 (ip), vehicle: saline",100 % of control
same,T/C,[7],92 % of control
same,T/C,[8],115 % of control
Cc1ccc(OC(=O)/C=C/C(=O)Oc2ccc(C)cc2)cc1,T/C,"dose: 75.0 mg/kg/injection, schedule: Q04DX003 (ip), vehicle: Klucel (hydroxypropylcellulose) (HPC)",89 % of control
same,T/C,"dose: 150.0 mg/kg/injection, schedule: Q04DX003 (ip), vehicle: Klucel (hydroxypropylcellulose) (HPC)",94 % of control
same,T/C,"dose: 300.0 mg/kg/injection, schedule: Q04DX003 (ip), vehicle: Klucel (hydroxypropylcellulose) (HPC)",100 % of control
O=C(O)/C(=C/c1ccc(O)cc1)c1ccccc1,T/C,[3],110 % of control
same,T/C,[5],100 % of control
same,T/C,"dose: 400.0 mg/kg/injection, schedule: Q01DX009 (ip), vehicle: saline with Tween-80",92 % of control
Cc1ccc([N+](=O)[O-])cc1NC(=O)Oc1ccc(Cl)cc1Cl,T/C,[1],93 % of control
same,T/C,[2],90 % of control
C[C@]12C=CC(=O)C=C1CC[C@@H]1[C@@H]2[C@@H](O)C[C@@]2(C)[C@H]1CC[C@]2(O)C(=O)CO,T/C,"dose: 10.0 mg/kg/injection, schedule: Q02DX009 (ip), vehicle: Klucel (hydroxypropylcellulose) (HPC)",91 % of control
same,T/C,"dose: 20.0 mg/kg/injection, schedule: Q02DX009 (ip), vehicle: Klucel (hydroxypropylcellulose) (HPC)",100 % of control
same,T/C,"dose: 40.0 mg/kg/injection, schedule: Q02DX009 (ip), vehicle: Klucel (hydroxypropylcellulose) (HPC)",96 % of control
same,T/C,"dose: 80.0 mg/kg/injection, schedule: Q02DX009 (ip), vehicle: Klucel (hydroxypropylcellulose) (HPC)",103 % of control
same,T/C,"dose: 160.0 mg/kg/injection, schedule: Q02DX009 (ip), vehicle: Klucel (hydroxypropylcellulose) (HPC)",109 % of control and 115 % of control
same,T/C,"dose: 320.0 mg/kg/injection, schedule: Q02DX009 (ip), vehicle: Klucel (hydroxypropylcellulose) (HPC)",92 % of control
COc1ccc(NC(=O)COc2ccccc2Br)cc1,T/C,[9],103 % of control
same,T/C,[10],100 % of control
same,T/C,[11],93 % of control
O=NN(CCF)C(=O)NC1CCC(NC(=O)N(CCF)N=O)CC1 (configuration not stated),T/C,[4],166 % of control
same,T/C,"dose: 16.5 mg/kg/injection, schedule: Q01DX009 (ip), vehicle: saline with Tween-80",232 % of control
same,T/C,"dose: 16.5 mg/kg/injection, schedule: Q01DX009 (ip), vehicle: saline",181 % of control
same,T/C,[1],214 % of control and 276 % of control
same,T/C,[7],120 % of control
same,T/C,"dose: 37.5 mg/kg/injection, schedule: Q01DX009 (ip), vehicle: saline with Tween-80",212 % of control
N#CC(Cc1ccccc1Cl)(Cc1ccccc1Cl)c1ccccc1,T/C,[9],100 % of control
same,T/C,[10],105 % of control
same,T/C,[11],105 % of control
c1ccc(C(=C2CCC2)c2c3ccccc3cc3ccccc23)cc1,T/C,"dose: 25.0 mg/kg/injection, schedule: Q04DX003 (ip), vehicle: Klucel (hydroxypropylcellulose) (HPC)",102 % of control
same,T/C,"dose: 50.0 mg/kg/injection, schedule: Q04DX003 (ip), vehicle: Klucel (hydroxypropylcellulose) (HPC)",91 % of control
same,T/C,"dose: 100.0 mg/kg/injection, schedule: Q04DX003 (ip), vehicle: Klucel (hydroxypropylcellulose) (HPC)",105 % of control
CC(CCCN(CCCl)CCCl)Nc1ccnc2cc(Cl)ccc12 (configuration not stated),T/C,"dose: 0.25 mg/kg/injection, schedule: Q01DX009 (ip), vehicle: saline + alcohol",94 % of control
same,T/C,"dose: 0.25 mg/kg/injection, schedule: Q04DX003 (ip), vehicle: saline + alcohol",100 % of control
same,T/C,"dose: 0.5 mg/kg/injection, schedule: Q01DX009 (ip), vehicle: saline + alcohol",94 % of control
same,T/C,"dose: 0.5 mg/kg/injection, schedule: Q04DX003 (ip), vehicle: saline + alcohol",106 % of control
same,T/C,"dose: 1.0 mg/kg/injection, schedule: Q01DX009 (ip), vehicle: saline + alcohol",97 % of control
same,T/C,"dose: 1.0 mg/kg/injection, schedule: Q04DX003 (ip), vehicle: saline + alcohol",112 % of control
same,T/C,"dose: 2.0 mg/kg/injection, schedule: Q01DX009 (ip), vehicle: saline + alcohol",88 % of control
same,T/C,"dose: 2.0 mg/kg/injection, schedule: Q04DX003 (ip), vehicle: saline + alcohol",118 % of control
COc1cc(Cl)c(CC(=O)c2c[nH]c3ccccc23)cc1OC,T/C,"dose: 6.25 mg/kg/injection, schedule: Q01DX009 (ip), vehicle: saline with Tween-80",100 % of control
same,T/C,[4],89 % of control
C1CN1P1(N2CC2)=NP(N2CC2)(N2CC2)=NP(N2CC2)(N2CC2)=NP(N2CC2)(N2CC2)=N1,T/C,"dose: 1.0 mg/kg/injection, schedule: Q01DX009 (ip), vehicle: saline",105 % of control
same,T/C,"dose: 1.0 mg/kg/injection, schedule: Q02DX009 (ip), vehicle: saline",88 % of control
same,T/C,"dose: 2.0 mg/kg/injection, schedule: Q01DX009 (ip), vehicle: saline",116 % of control
same,T/C,"dose: 2.0 mg/kg/injection, schedule: Q02DX009 (ip), vehicle: saline",95 % of control and 105 % of control
same,T/C,"dose: 4.0 mg/kg/injection, schedule: Q01DX009 (ip), vehicle: saline",120 % of control
same,T/C,"dose: 4.0 mg/kg/injection, schedule: Q02DX009 (ip), vehicle: saline",87 % of control and 90 % of control
same,T/C,"dose: 8.0 mg/kg/injection, schedule: Q01DX009 (ip), vehicle: saline",108 % of control
same,T/C,"dose: 8.0 mg/kg/injection, schedule: Q02DX009 (ip), vehicle: saline",100 % of control
same,T/C,"dose: 16.0 mg/kg/injection, schedule: Q01DX009 (ip), vehicle: saline",93 % of control
same,T/C,"dose: 16.0 mg/kg/injection, schedule: Q02DX009 (ip), vehicle: saline",98 % of control and 100 % of control
same,T/C,"dose: 32.0 mg/kg/injection, schedule: Q01DX009 (ip), vehicle: saline",97 % of control
same,T/C,"dose: 32.0 mg/kg/injection, schedule: Q02DX009 (ip), vehicle: saline",87 % of control and 100 % of control
same,T/C,"dose: 64.0 mg/kg/injection, schedule: Q01DX009 (ip), vehicle: saline",108 % of control
same,T/C,"dose: 64.0 mg/kg/injection, schedule: Q02DX009 (ip), vehicle: saline",87 % of control and 94 % of control
CC(=O)C(N)CCC(=O)O (configuration not stated),T/C,[8],105 % of control
same,T/C,[12],113 % of control
same,T/C,[13],97 % of control
C/C=C/C=C/c1cc2cc3c(c(O)c2c(=O)[nH]1)C1(CC3)C(O)=c2c(=O)c3c(=O)cc(OC)c(=O)c=3c(=O)c2=C1O (configuration not stated),T/C,"dose: 0.06 mg/kg/injection, schedule: Q01DX009 (ip), vehicle: DMSO",98 % of control
same,T/C,"dose: 0.12 mg/kg/injection, schedule: Q01DX009 (ip), vehicle: DMSO",99 % of control
same,T/C,"dose: 0.25 mg/kg/injection, schedule: Q01DX009 (ip), vehicle: DMSO",96 % of control
same,T/C,"dose: 0.5 mg/kg/injection, schedule: Q01DX009 (ip), vehicle: DMSO",120 % of control
CC(=O)c1ccc2c(c1)N(CCCN1CCN(CCO)CC1)c1ccccc1S2,T/C,"dose: 0.78 mg/kg/injection, schedule: Q01DX009 (ip), vehicle: saline",98 % of control
same,T/C,"dose: 1.56 mg/kg/injection, schedule: Q01DX009 (ip), vehicle: saline",103 % of control
same,T/C,[6],97 % of control
NC(=O)Oc1ccccc1,T/C,[9],100 % of control
same,T/C,"dose: 100.0 mg/kg/injection, schedule: Q04DX003 (ip), vehicle: saline with Tween-80",106 % of control
same,T/C,[10],100 % of control
same,T/C,"dose: 200.0 mg/kg/injection, schedule: Q04DX003 (ip), vehicle: saline with Tween-80",113 % of control
same,T/C,"dose: 400.0 mg/kg/injection, schedule: Q04DX003 (ip), vehicle: saline with Tween-80",110 % of control
CCCCCCCCCCCCOCCOCCOCC(N)=O,T/C,[12],112 % of control
same,T/C,[13],109 % of control
same,T/C,"dose: 400.0 mg/kg/injection, schedule: Q01DX009 (ip), vehicle: saline",90 % of control
